Laboratory results published in PMC9331863 (Antibiotics, 2022).
Where two headings read alike, the source gives them in different places.

Assays:
[1] = cited from earlier work
Source text: Data were retrieved from registrative phase II/III clinical trials.

[2] = Population pharmacokinetic modelling of dalbavancin plasma concentrations (TDM) in patients; conditions: for Q, inter-compartmental clearance / V1, central volume of distribution / V2, peripheral volume of distribution: typical value (%RSE)
Method: The study was approved by the local Ethics Committee (registration number 897/2021/Oss/AOUBo). Signed informed consent was waived due to the retrospective and observational nature of the investigation according to hospital agreements.
The dose amount (1000 mg or 1500 mg) was arbitrarily decided by the infectious diseases consultant at each patient center. The decision to administer any additional doses was taken in relation to the clinical evaluation of disease progression after at least 4 weeks from the administration of the second dose and it was based on the patient’s physical examination and on the trend of inflammatory biomarkers.
Blood samples were collected at different time-points after the second dose and sent to our lab for analysis. […] The lower limit of quantification was 0.5 mg/L.
At a first stage, a basic model was developed, by comparing one-, two- and three-compartment models with linear elimination. All individual parameters were log-normally distributed. Exponential random effects were assumed to describe inter-individual variability. Correlations between random effects were tested in the variance–covariance matrix and implemented into the structural model accordingly. Residual variability was tested according to three different error models (constant, proportional and combined error model).
The following covariates were tested on the PK parameters of the base model: age, gender, weight, height, serum albumin, serum creatinine and CLCR. The parameter–covariate relationships were modeled as additive or proportional shifts from the reference category for binary covariates, whereas the effect of continuous covariates was modeled using a power function. A covariate was included in the model according to the results of the likelihood ratio test (LRT) and if a reduction in the BIC and a decrease in the interpatient variability of the fixed-effect parameters were obtained. Descriptions of the pharmacokinetic model building and covariate analysis are reported in the Supplementary Materials.

[3] = cited from earlier work; remark: listed apart in the source
[4] = real-world use beyond approved indications, outpatient antimicrobial treatment; cited from earlier work
[5] = three-compartment model, 703 patients with ABSSSI, ref Carrothers et al. [12]
[6] = median (min–max) of population, 69 patients, two-compartment final model

SMILES: CN[C@H]1C(=O)N[C@@H]2Cc3ccc(cc3)Oc3cc4cc(c3O[C@@H]3O[C@H](C(=O)O)[C@@H](O)[C@H](O)[C@H]3NC(=O)CCCCCCCCC(C)C)Oc3ccc(cc3Cl)[C@@H](O)[C@@H]3NC(=O)[C@H](NC(=O)[C@@H]4NC(=O)[C@@H](NC2=O)c2cc(cc(O)c2Cl)Oc2cc1ccc2O)c1ccc(O)c(c1)-c1c(O[C@H]2O[C@H](CO)[C@@H](O)[C@H](O)[C@@H]2O)cc(O)cc1[C@@H](C(=O)NCCCN(C)C)NC3=O [dalbavancin]
- elimination half-life [1]: > 180 h
- population CL [1, 5]: 0.053 L/h
- total V [1, 5]: 15.0 L
- population CL ([1]; two-compartment model, 532 patients (ABSSSI, bloodstream infections), ref Buckwalter et al. [11]): 0.057 L/h
- total V ([1]; two-compartment model, 532 patients, ref Buckwalter et al. [11]): 15.9 L
- Q, inter-compartmental clearance ([2]; base model): 0.026 (17.9) L/h
- V1, central volume of distribution ([2]; base model): 6.15 (4.79) L
- V2, peripheral volume of distribution ([2]; base model): 10.51 (13.7) L
- Q, inter-compartmental clearance ([2]; final model): 0.026 (18.1) L/h
- V1, central volume of distribution ([2]; final model): 6.14 (5.26) L
- V2, peripheral volume of distribution ([2]; final model): 9.52 (19.0) L
- CL, total body clearance ([2]; human, in vivo): 0.029 (11.6) L/h
- Vd ([2]; human, in vivo): 15.7 L
- clearance ([2]; human, in vivo, CL, total body clearance): 0.683 mL/min
- clearance ([2]; human, in vivo, population CL): 0.717 mL/min
- population V1 [2, 6]: 6.21 (5.10–7.19) L
- population V2 [2, 6]: 9.48 (7.60–11.89) L
- penetration rate into bone tissue [3]: 13.1%
- overall clinical success rate [4]: greater than 80%
